Each block holds one compound with its values, some of them ahead of it.
Assays:
Format in all cases: cell-based, human
[1] = system: miR-21 expression in H3255 cells; assay: qRT-PCR of miR-21 expression after AG1478/EGF treatment, H3255; conditions: for miR-21 expression levels: AG1478 2 μM or 10 μM
Experimental: (§1) FIGS. 2A-2B: AG1478 represses miR-21 expression. H3255 lung adenocarcinoma cells, characterized by a high expression of miR-21 and EGFR mutation, were serum-starved for 24 h and then grown in either the presence or absence of AG1478 (2 μM or 10 μM) for 2 h with or without following exposure to 20 ng/ml of EGF for 15 min.
FIG. 2B: MiR-21 expression levels analyzed by qRT-PCR after the AG1478 treatments (2 μM or 10 μM) with or without EGF ligand stimulation. MiR-21 expression levels were expressed as the relative values to untreated cells in the absence of EGF. Data were mean±SD from four independent experiments. *, p<0.05, paired t-test.
(§2) Expression of mature miRs was examined using qRT-PCR analysis using a TaqMan Human MicroRNA Assay kit (Applied Biosystems, Foster City, Calif.). RNU6B was used as an endogenous control (#4373381, Applied Biosystems). Reactions were performed using a PRISM 7700 Sequence Detector System (Applied Biosystems). Gene expression was quantified and values were reported as 2-ΔΔCT. Data were presented as mean±SD from triplicate.
(§3) AG1478 was purchased from Calbiochem (San Diego, Calif.). Epidermal growth factor (EGF) was purchased from Promega (Madison, Wis.). To evaluate the effect of AG1478 on the EGFR signaling pathway and miR-21 expression levels, lung cancer cell lines were serum-starved for 24 h, incubated in the presence or absence of AG1478 (2 μM or 10 μM) for 2 h, and then for an additional 15 min in the presence or absence of EGF (20 ng/ml).

[2] = system: H441 lung adenocarcinoma cells (EGFR wild-type); assay: MTS growth inhibition assay, H441; conditions: 72 h, read-out: IC50 (half maximal inhibitory concentration), cell growth
Excerpt: (§4) Six lung adenocarcinoma cell lines (A549, H23, H441, H1650, H1975 and H3255), one squamous cell line (H157) and one large cell carcinoma cell line (H1299) were used in this study. H3255 was provided by National Cancer Institute and maintained in ACL-4 medium (GIBCO) with 5% fetal bovine serum (GIBCO). A549, H23, H441, H1650, H1975, H157 and H1299 were purchased from American Type Culture Collection (ATCC) and maintained in RPMI 1640 (GIBCO) with 10% fetal bovine serum. hTERT-immortalized normal human bronchial epithelial cells (HBET2) were established.
(§5) Growth inhibition was assessed by MTS assay (Dojindo, Japan) to examine the effect of AG1478 on lung cancer cell lines. Cell suspensions (5,000 cells/well) were seeded into 96-well plates and increasing concentrations of AG1478 (0, 0.4, 2.0, 10 and 50 μM) were added. After incubation for 72 h at 37° C., MTS [3-(4,5-dimethylthiazol-2-yl)-5-(3-carboxymethoxyphenyl)-2-(4-sulfophenyl) 2H-tetrazolium, inner salt] was added to each well and incubated for 2 h at 37° C., and then absorbance was measured using a microplate reader with a test wavelength of 450 nm. The IC50 value was defined as the concentration needed for 50% reduction of the growth by treatment with AG1478. Each experiment was done at least in triplicate, and four times independently. The data were shown as mean±SD.

[3] = system: H1650 lung adenocarcinoma cells (EGFR mutant ΔE746-A750); assay: MTS growth inhibition assay, H1650
Excerpt: as §4, §5

[4] = system: miR-21 expression in H441 cells; assay: qRT-PCR of miR-21 expression after AG1478 treatment, H441; conditions: H441, AG1478 at 10 μM, absence of EGF, p<0.05
Experimental: FIG. 7: AG1478 represses miR-21 expression in H441 lung adenocarcinoma cells. MiR-21 expression levels were analyzed by qRT-PCR after the AG1478 treatments (2 μM or 10 μM) in the absence of EGF and expressed relative to untreated cells. Data were mean±SD from triplicate. *, p<0.05, paired t-test.
as §2, §3

[5] = system: H3255 lung adenocarcinoma cells (EGFR mutant L858R); assay: MTS growth inhibition assay, H3255; conditions: 72 h, read-out: IC50 (half maximal inhibitory concentration), cell growth
Excerpt: as §4, §5

[6] = system: H1975 lung adenocarcinoma cells (EGFR mutant L858R and T790M); assay: MTS growth inhibition assay, H1975
Excerpt: as §4, §5

[7] = system: A549 lung adenocarcinoma cells (EGFR wild-type); assay: MTS growth inhibition assay, A549
Excerpt: as §4, §5

[8] = system: EGFR signaling (phospho-EGFR, phospho-Akt) in H3255 cells; assay: Western blot of p-EGFR and p-Akt after AG1478 treatment, H3255; conditions: H3255, AG1478 at either 2 μM or 10 μM for 2 h, with or without EGF 20 ng/ml
Experimental: as §1
FIG. 2A: The effect of AG1478 on phospho-EGFR (p-EGFR) and phospho-Akt (p-Akt) expression. β-actin was a loading control.
as §3
Cells were lysed in buffer containing 50 mM Tris-HCl, pH 7.6, 150 mM NaCl, 0.1% sodium dodecyl sulfate, 1% Nonidet P-40, and 0.5% sodium-deoxycholate. […] The supernatant was collected and then 10 μg of protein were separated by gel electrophoresis on 10% gels, transferred to nitrocellulose membranes and detected by immunoblotting using a chemiluminescence system (GE Healthcare Bio-Sciences Corp, Piscataway, N.J.). The images were quantified by measuring signal intensity using NIH ImageJ1.40g (rsb.info.nih.gov/ij/). […]

[9] = system: H441 cells (caspase-3 and caspase-7 activities); assay: ApoONE caspase 3/7 apoptosis assay, H441
Experimental: (§6) FIGS. 3B-3C: Cells (H3255 or H441) were transfected with 40 nM of anti-miR-21 (+) or anti-EGFP (−) for 72 h and then grown in the presence or absence of 0.2 μM of AG1478 for 24 h (H3255) or 10 μM for 72 h (H441). The activities of caspase 3/7 were expressed as the relative values to the activities of cells without anti-miR-21 and AG1478. Data were mean±SD from at least four independent experiments. *, p<0.05, Student t-test.
(§7) 2′-O-methyl oligonucleotides were chemically synthesized at Integrated DNA Technologies (Coralville, Iowa). 2′-O-methyl oligonucleotides had the following sequences: 2′OMe-enhanced green fluorescent protein (EGFP) (anti-EGFP) 5′-AAGGCAAGCUGACCCUGAAGU-3′ [SEQ ID NO:1] and 2′OMe-miR-21 (anti-miR-21) 5′-UCA ACA UCA GUC UGA UAA GCUA-3′ [SEQ ID NO:2]. H441 and H3255 cells were plated in triplicate in 96-well plates. Cells were transfected using LipofectAMINE 2000 reagent (Invitrogen) 24 h after plating. […] Activities of caspase-3 and caspase-7 were analyzed using ApoONE Homogeneous Caspase 3/7 Assay (Promega) according to the manufacturer's instructions. Samples were measured after 6 h of incubation with the caspase substrate on a fluorescent plate reader using wavelengths of 485 and 535 nm for excitation and emission, respectively. […]

miR-21 in H3255 cells = assay: qRT-PCR of miR-21 after anti-miR-21 transfection, H3255; conditions: H3255, 40 nM, 72 h, vs anti-EGFP control
Experimental: (§8) FIG. 3A: Cells were transfected with 40 nM of anti-miR-21 (+) or control oligonucleotide (anti-EGFP) (−) for 72 h and examined by qRT-PCR. The expression levels of miR-21 after transfection of anti-miR-21 were expressed as the relative values to control. Data were mean±SD from three independent experiments. *, p<0.05, paired t-test.
as §2
(§9) 2′-O-methyl oligonucleotides were chemically synthesized at Integrated DNA Technologies (Coralville, Iowa). […] Activities of caspase-3 and caspase-7 were analyzed using ApoONE Homogeneous Caspase 3/7 Assay (Promega) according to the manufacturer's instructions. Samples were measured after 6 h of incubation with the caspase substrate on a fluorescent plate reader using wavelengths of 485 and 535 nm for excitation and emission, respectively. […]

[10] = system: uncleaved PARP in H441 cells; assay: Western blot of uncleaved PARP, H441; conditions: H441, anti-miR-21 in the presence or absence of AG1478 (2 μM, 72 h)
Experimental: (§10) FIG. 3D: Uncleaved PARP was evaluated by Western blot. Cells were transfected with anti-miR-21 or anti-EGFP as above and then grown in the presence or absence of 2 μM of AG1478 for 72 h. β-actin was a loading control.
(§11) Cells were lysed in buffer containing 50 mM Tris-HCl, pH 7.6, 150 mM NaCl, 0.1% sodium dodecyl sulfate, 1% Nonidet P-40, and 0.5% sodium-deoxycholate. The lysates were kept on ice for 30 min, and then centrifuged at 13000 g for 30 min. The supernatant was collected and then 10 μg of protein were separated by gel electrophoresis on 10% gels, transferred to nitrocellulose membranes and detected by immunoblotting using a chemiluminescence system (GE Healthcare Bio-Sciences Corp, Piscataway, N.J.). The images were quantified by measuring signal intensity using NIH ImageJ1.40g (rsb.info.nih.gov/ij/). The antibodies detecting EGFR, phospho-EGFR (Tyr1173), phospho-Akt (Ser473), PARP and β-actin were purchased from Cell Signaling Technology (Beverley, Mass.).

[11] = system: H3255 cells (caspase-3 and caspase-7 activities); assay: ApoONE caspase 3/7 apoptosis assay, H3255
Experimental: as §6, §7

miR-21 in H441 cells = assay: qRT-PCR of miR-21 after anti-miR-21 transfection, H441; conditions: H441, 40 nM, 72 h, vs anti-EGFP control
Experimental: as §8, §2, §9

[12] = system: uncleaved PARP in H3255 cells; assay: Western blot of uncleaved PARP, H3255; conditions: H3255, both anti-miR-21 and AG1478 (2 μM, 72 h)
Experimental: as §10, §11

Compound: EGF: Epidermal growth factor (EGF) ligand, purchased from Promega
upregulation of miR-21 expression ([1]; H3255, serum-starved, EGF 20 ng/ml for 15 min, relative to untreated cells): ~2.5 fold

IC50 [2]: 10 µM
IC50 [5]: 300 nM
Compound: COc1cc2ncnc(Nc3cccc(Cl)c3)c2cc1OC [AG1478]
cell proliferation [3]: inhibited cell proliferation
miR-21 expression [4]: significantly repressed miR-21 expression
miR-21 expression levels ([1]; H3255, absence of EGF, p<0.01): significantly repressed
miR-21 expression levels ([1]; H3255, with EGF 20 ng/ml, p<0.05): inhibited back to the basal levels
cell proliferation [6]: inhibited cell proliferation
cell proliferation [7]: inhibited cell proliferation
EGFR signaling (p-EGFR and p-Akt) [8]: effectively inhibited the EGFR signaling

Compound: anti-miR-21: 2′-O-methyl antisense oligonucleotide targeting miR-21, 5′-UCA ACA UCA GUC UGA UAA GCUA-3′ [SEQ ID NO:2] (antisense UCAACAUCAGUCUGAUAAGCUA; all 2'-O-methyl, backbone not given here)
apoptosis (caspase 3/7 activities) ([9]; H441, anti-miR-21 40 nM alone): significant increase in apoptotic response
apoptosis (caspase 3/7 activities) ([9]; H441, anti-miR-21 40 nM in combination with 10 μM AG1478 for 72 h): further enhanced apoptotic response
miR-21 expression after antisense transfection (miR-21 in H3255 cells): repression of miR-21 in these cells was confirmed
amounts of uncleaved PARP [10]: markedly decreased
apoptosis (caspase 3/7 activities) ([11]; H3255, anti-miR-21 40 nM alone): did not induce apoptosis
apoptosis (caspase 3/7 activities) ([11]; H3255, anti-miR-21 40 nM in combination with AG1478 at 0.2 μM for 24 h): significantly enhanced AG1478-induced apoptotic response
miR-21 expression after antisense transfection (miR-21 in H441 cells): repression of miR-21 in these cells was confirmed
amounts of uncleaved PARP [12]: markedly decreased

— US20120027753A1, “MicroRNAs in Never-Smokers and Related Materials and Methods” (THE OHIO STATE UNIVERSITY, priority 2009, published 2012)
